The source of these data is the METLIN SMRT retention time set (Domingo-Almenara et al. 2019).

The data set can be described thus: gradient 5% acetonitrile 3 min, to 50% in 2 min, to 85% in 15 min, held 3 min, 100 µL/min. The settings on record: column: Zorbax Extend-C18 2.1 x 50 mm; eluents: water / acetonitrile, 0.1% formic acid. The gist of the method:
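Retention time was recorded from adduct peaks, which were picked computationally and each inspected manually. Pure standards ran in mixtures of ~100 molecules on HPLC coupled to a quadrupole time-of-flight mass spectrometer, in positive and negative ionization mode, through a Zorbax Extend-C18 column (2.1 × 50 mm, 1.8 μm) at 100 μL/min. Eluents were water and acetonitrile, each with 0.1% formic acid.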
As to `COC(=O)CNC(=O)NC(C)C(=O)N1CCc2ccccc21` (stereo not drawn), the RP-LC retention time was determined as 662 s.

Regarding `CCc1ccccc1NC(=O)Cn1c(N2CCOCC2)nc(C)cc1=O`, the RP-LC retention time stood at 674 s.

Regarding `Cc1nc(-c2ccccc2)sc1C(=O)N1CCCC1`, the RP-LC retention time was 824 s.

`CCn1c(=O)oc2cc(-c3noc(-c4ccc(C(F)(F)F)cc4)n3)ccc21` came in with an RP-LC retention time of 1220 s.

For the compound `COCC(=O)Nc1ccc2c(c1)CCC(=O)N2C`, the RP-LC retention time amounted to 613 s.

The compound `COCC(=O)N(CC(=O)N1CCc2sccc2C1COc1ccccc1OC)C(C)C` (stereo not drawn) yielded an RP-LC retention time of 795 s.

For the compound `O=C(NCCc1ccccc1)N1CCCC(Cn2c(C3CC3)nc3cccnc32)C1` (stereo not drawn), the RP-LC retention time is 682 s.

For `COc1ccccc1CNC(=O)Cc1csc(NC(=O)Nc2cccc(Cl)c2)n1`, the RP-LC retention time was determined as 837 s.

Compound `CC(C)c1nc(NCc2ccc3c(c2)OCO3)ncc1C(=O)O` yielded an RP-LC retention time of 844 s.

The compound `CCOc1ccc(-c2cc3c(=O)n(Cc4nc(-c5ccccc5C)no4)ccn3n2)cc1` showed an RP-LC retention time of 1170 s.

Turning to `CC(O)(CCc1ccccc1)CNC(=O)CN1C(=O)CCC1=O` (stereo not drawn), the RP-LC retention time came out at 631 s.

`COc1ccc(-c2c(C)noc2NC(C)=O)cc1S(=O)(=O)Nc1ccc(C)cc1Cl`: the RP-LC retention time turned out to be 837 s.

Take `CC(C)c1ccc(OCC(=O)N(Cc2ccc(Br)o2)C2CCS(=O)(=O)C2)cc1` (stereo not drawn): the RP-LC retention time is 1050 s.

`CCOC(=O)c1nc(Nc2ccc(C)cc2Cl)c2ccccc2n1` gave an RP-LC retention time of 929 s.

Take `O=C(CN1C[C@H]2C[C@H](C1)[C@H]1CCCC(=O)N1C2)NCc1cccs1`: the RP-LC retention time was 578 s.

For the compound `Nc1cccc(C(=O)CC2(O)C(=O)Nc3ccc(Cl)cc32)c1` (stereo not drawn), the RP-LC retention time is 627 s.

Compound `CC(=O)c1cccc(NC2=NS(=O)(=O)c3ccccc32)c1` yielded an RP-LC retention time of 744 s.

For `O=C(c1cn2ccccc2n1)N1CCN(c2cccc(Cl)c2)CC1`, the RP-LC retention time was determined as 718 s.

The compound `COc1ccc(CNC(=O)C2CCN(c3ccc(SCc4ccccc4)nn3)CC2)cc1` registered an RP-LC retention time of 742 s.

The compound `CCc1ccc(NC(=O)C2CCN(c3c(C(=O)N(CC)CC)cnc4snc(C)c34)CC2)cc1` registered an RP-LC retention time of 687 s.

Turning to `CCc1nncn1C1CCN(S(=O)(=O)c2cccc(F)c2)CC1`, the RP-LC retention time came to 678 s.

Regarding `CCOc1ccc2nc(NC(=O)C3CCN(c4ccc(-n5cccn5)nn4)CC3)sc2c1`, the RP-LC retention time stood at 780 s.

On to `Cc1ccn2cc(C(=O)NCc3cccc(F)c3)nc2c1`, for which the RP-LC retention time came out at 645 s.

Consider `C[C@@H]1COC(Nc2ccc3ncnc(Nc4ccc(OCc5nccs5)c(Cl)c4)c3c2)=N1`, for which the RP-LC retention time was 634 s.

In turn, `COc1cc(OC)cc(N2C(=O)CC(c3ccc(OC)c(OC)c3)CC2=O)c1` yielded an RP-LC retention time of 833 s.

As to `O=C(Nc1ccc(F)c(F)c1)C(=O)c1ccc[nH]1`, the RP-LC retention time is 899 s.

Consider `CC1=C(c2ccc(C)cc2)S(=O)(=O)N=C1N1CCCN(C(=O)Nc2ccccc2)CC1`, for which the RP-LC retention time was 846 s.

`COc1ccc(C2(C(=O)N3CC[C@@H]4CN(Cc5ccccc5)[C@@H]4C3)CC2)cc1`: the RP-LC retention time was determined as 652 s.

For the compound `CCn1cc(-c2nc(CC(=O)NCc3ccc(C)o3)cs2)c2cccnc21`, the RP-LC retention time is 912 s.

In turn, `COC(=O)c1c(C)[nH]c(C(=O)N2CCC(CC(=O)N3CCN(C4CCCCC4)CC3)CC2)c1C` gave an RP-LC retention time of 594 s.

`O=C(NCc1ccco1)C1CCCN(c2ccc(-c3ccccc3)nn2)C1` (stereo not drawn): the RP-LC retention time came to 654 s.

`Cc1cc(C)c(NC(=O)COc2cccc3c(=O)n(C)ccc23)c(C)c1` displayed an RP-LC retention time of 805 s.

`COc1ccc(S(=O)(=O)N2CCC(c3noc(-c4ccc(C)cc4)n3)CC2)cc1` yielded an RP-LC retention time of 1150 s.
